Data reported in PubChem BioAssay (NCI).
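Abbreviation: GI50, concentration required for 50% inhibition of growth. TGI: concentration producing complete growth inhibition.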

Experiments:
Experiment in all cases: NCI anticancer screen, dose series, 384-well format
SK-OV-3 ovarian = test system: SK-OV-3 ovarian
M14 melanoma = test system: M14 melanoma
KM12 colon = test system: KM12 colon
786-0 renal = test system: 786-0 renal
UACC-62 melanoma = test system: UACC-62 melanoma
A549 NSCLC = test system: A549 NSCLC
IGROV1 ovarian = test system: IGROV1 ovarian
MALME-3M melanoma = test system: MALME-3M melanoma
HCT-15 colon = test system: HCT-15 colon
NCI/ADR-RES ovarian = test system: NCI/ADR-RES ovarian
T-47D breast = test system: T-47D breast
MDA-MB-231 breast = test system: MDA-MB-231 breast
MCF7 breast = test system: MCF7 breast
SF-539 CNS = test system: SF-539 CNS
UACC-257 melanoma = test system: UACC-257 melanoma
NCI-H23 lung = test system: NCI-H23 lung
COLO 205 colon = test system: COLO 205 colon
NCI-H522 lung = test system: NCI-H522 lung
OVCAR-4 ovarian = test system: OVCAR-4 ovarian
TK-10 renal = test system: TK-10 renal
HOP-62 NSCLC = test system: HOP-62 NSCLC
NCI-H460 NSCLC = test system: NCI-H460 NSCLC
SW-620 colon = test system: SW-620 colon
SF-295 CNS = test system: SF-295 CNS
ACHN renal = test system: ACHN renal
HT29 colon = test system: HT29 colon
A498 renal = test system: A498 renal
NCI-H322M lung = test system: NCI-H322M lung
HOP-92 NSCLC = test system: HOP-92 NSCLC
SK-MEL-28 melanoma = test system: SK-MEL-28 melanoma
OVCAR-3 ovarian = test system: OVCAR-3 ovarian
BT-549 breast = test system: BT-549 breast
LOX IMVI melanoma = test system: LOX IMVI melanoma
SR leukemia = test system: SR leukemia
OVCAR-5 ovarian = test system: OVCAR-5 ovarian
CAKI-1 renal = test system: CAKI-1 renal
UO-31 renal = test system: UO-31 renal
DU-145 prostate = test system: DU-145 prostate
SK-MEL-2 melanoma = test system: SK-MEL-2 melanoma
PC-3 prostate = test system: PC-3 prostate
MDA-MB-435 melanoma = test system: MDA-MB-435 melanoma
RXF 393 renal = test system: RXF 393 renal
MDA-MB-468 breast = test system: MDA-MB-468 breast
SK-MEL-5 melanoma = test system: SK-MEL-5 melanoma
MOLT-4 leukemia = test system: MOLT-4 leukemia
HL-60(TB) leukemia = test system: HL-60(TB) leukemia
CCRF-CEM leukemia = test system: CCRF-CEM leukemia
K-562 leukemia = test system: K-562 leukemia
NCI-H226 lung = test system: NCI-H226 lung
U251 glioblastoma = test system: U251 glioblastoma
OVCAR-8 ovarian = test system: OVCAR-8 ovarian
RPMI-8226 leukemia = test system: RPMI-8226 leukemia
SN12C renal = test system: SN12C renal

For CN(C(=O)c1ccc(C(F)(F)F)cc1)c1ccc(Oc2ccc3c(c2)cc(C(=O)N2CCN(Cc4ccc(OC(F)F)cc4)CC2)n3C)nc1, the GI50 (SK-OV-3 ovarian) was under 0.01 µM, the TGI (SK-OV-3 ovarian) was over 100 µM and the GI50 (M14 melanoma) was 6.53 µM. It also gave a TGI (M14 melanoma) of over 100 µM, a GI50 (KM12 colon) of over 100 µM and a TGI (KM12 colon) of over 100 µM. It also gave a GI50 ([…]-0 renal) of over 100 µM, a TGI (786-0 renal) of over 100 µM and a GI50 (UACC-62 melanoma) of over 100 µM. It also gave a TGI (UACC-62 melanoma) of over 100 µM, a GI50 (A549 NSCLC) of under 0.01 µM and a TGI (A549 NSCLC) of over 100 µM. It also gave a GI50 (IGROV1 ovarian) of 0.0201 µM, a TGI (IGROV1 ovarian) of over 100 µM and a GI50 (MALME-3M melanoma) of over 100 µM. The TGI (MALME-3M melanoma) was over 100 µM, the GI50 (HCT-15 colon) was 6.41 µM and the TGI (HCT-15 colon) was over 100 µM. For the same compound, the GI50 (NCI/ADR-RES ovarian) was under 0.01 µM, the TGI (NCI/ADR-RES ovarian) was 0.0671 µM and the GI50 (T-47D breast) was under 0.01 µM. It also gave a TGI (T-47D breast) of 6.89 µM, a GI50 (MDA-MB-231 breast) of under 0.01 µM and a TGI (MDA-MB-231 breast) of over 100 µM. For the same compound, the GI50 (MCF7 breast) was 0.136 µM, the TGI (MCF7 breast) was over 100 µM and the GI50 (SF-539 CNS) was over 100 µM. For the same compound, the TGI (SF-539 CNS) was over 100 µM, the GI50 (UACC-257 melanoma) was under 0.01 µM and the TGI (UACC-257 melanoma) was 2.84 µM. It also gave a GI50 (NCI-H23 lung) of under 0.01 µM, a TGI (NCI-H23 lung) of under 0.01 µM and a GI50 (COLO 205 colon) of over 100 µM. For the same compound, the TGI (COLO 205 colon) was over 100 µM, the GI50 (NCI-H522 lung) was under 0.01 µM and the TGI (NCI-H522 lung) was over 100 µM. For the same compound, the GI50 (OVCAR-4 ovarian) was under 0.01 µM, the TGI (OVCAR-4 ovarian) was over 100 µM and the GI50 (TK-10 renal) was 2.97 µM. For the same compound, the TGI (TK-10 renal) was over 100 µM, the GI50 (HOP-62 NSCLC) was under 0.01 µM and the TGI (HOP-62 NSCLC) was over 100 µM. For the same compound, the GI50 (NCI-H460 NSCLC) was under 0.01 µM, the TGI (NCI-H460 NSCLC) was under 0.01 µM and the GI50 (SW-620 colon) was 8.11 µM. The TGI (SW-620 colon) was over 100 µM, the GI50 (SF-295 CNS) was 0.0107 µM and the TGI (SF-295 CNS) was over 100 µM. It also gave a GI50 (ACHN renal) of over 100 µM, a TGI (ACHN renal) of over 100 µM and a GI50 (HT29 colon) of over 100 µM. The TGI (HT29 colon) was over 100 µM, the GI50 (A498 renal) was under 0.01 µM and the TGI (A498 renal) was 0.0209 µM. The GI50 (NCI-H322M lung) was under 0.01 µM, the TGI (NCI-H322M lung) was over 100 µM and the GI50 (HOP-92 NSCLC) was 0.864 µM. The TGI (HOP-92 NSCLC) was over 100 µM, the GI50 (SK-MEL-28 melanoma) was over 100 µM and the TGI (SK-MEL-28 melanoma) was over 100 µM. It also gave a GI50 (OVCAR-3 ovarian) of 3.02 µM, a TGI (OVCAR-3 ovarian) of over 100 µM and a GI50 (BT-549 breast) of 1.27 µM. The TGI (BT-549 breast) was over 100 µM, the GI50 (LOX IMVI melanoma) was under 0.01 µM and the TGI (LOX IMVI melanoma) was over 100 µM. For the same compound, the GI50 (SR leukemia) was under 0.01 µM, the TGI (SR leukemia) was under 0.01 µM and the GI50 (OVCAR-5 ovarian) was over 100 µM. For the same compound, the TGI (OVCAR-5 ovarian) was over 100 µM, the GI50 (CAKI-1 renal) was over 100 µM and the TGI (CAKI-1 renal) was over 100 µM. The GI50 (UO-31 renal) was over 100 µM, the TGI (UO-31 renal) was over 100 µM and the GI50 (DU-145 prostate) was over 100 µM. It also gave a TGI (DU-145 prostate) of over 100 µM, a GI50 (SK-MEL-2 melanoma) of over 100 µM and a TGI (SK-MEL-2 melanoma) of over 100 µM. For the same compound, the GI50 (PC-3 prostate) was 3.48 µM, the TGI (PC-3 prostate) was over 100 µM and the GI50 (MDA-MB-435 melanoma) was over 100 µM. The TGI (MDA-MB-435 melanoma) was over 100 µM, the GI50 (RXF 393 renal) was under 0.01 µM and the TGI (RXF 393 renal) was under 0.01 µM. It also gave a GI50 (MDA-MB-468 breast) of under 0.01 µM, a TGI (MDA-MB-468 breast) of under 0.01 µM and a GI50 (SK-MEL-5 melanoma) of under 0.01 µM. For the same compound, the TGI (SK-MEL-5 melanoma) was 0.95 µM, the GI50 (MOLT-4 leukemia) was under 0.01 µM and the TGI (MOLT-4 leukemia) was 1.42 µM. For the same compound, the GI50 (HL-60(TB) leukemia) was 1.01 µM, the TGI (HL-60(TB) leukemia) was 2.56 µM and the GI50 (CCRF-CEM leukemia) was under 0.01 µM. The TGI (CCRF-CEM leukemia) was 1.04 µM, the GI50 (K-562 leukemia) was under 0.01 µM and the TGI (K-562 leukemia) was over 100 µM. The GI50 (NCI-H226 lung) was 0.431 µM, the TGI (NCI-H226 lung) was over 100 µM and the GI50 (U251 glioblastoma) was under 0.01 µM. The TGI (U251 glioblastoma) was over 100 µM, the GI50 (OVCAR-8 ovarian) was under 0.01 µM and the TGI (OVCAR-8 ovarian) was over 100 µM. It also gave a GI50 (RPMI-8226 leukemia) of under 0.01 µM, a TGI (RPMI-8226 leukemia) of under 0.01 µM and a GI50 (SN12C renal) of over 100 µM. The TGI (SN12C renal) was over 100 µM.
